Legend:
[1] = system: human CD45+ cell engraftment in NSG mice; assay: primary transplant (1T) of cultured hCD34+ cells into NSG mice, hCD45+ engraftment in bone marrow; format: in vivo; conditions: for hCD45+ cell engraftment in bone marrow of 1T mice: 24 weeks after primary transplant of cultured hCD34+ cells with/without inhibitor
Protocol: FIG. 2. A preclinical model for studying adult human HSC ex vivo manipulation and gene transfer and its effect on LTRP. (Panel A) Freshly isolated or thawed mobilized peripheral blood (MPB) derived CD34+ cells were utilized for the study. Two different protocols were utilized for the study where lentivirus (LV) or γ-Retrovirus (RV) mediated gene transfer was performed at indicated time points. 0 h, 18-24 h, 36-42 h, and 72-96 h indicates the total amount of time where cells were exposed in the ex vivo culture after CD34 isolation before injection into NSG mice. (Panel B) After indicated time in culture and transduction, 1 million CD34+ starting equivalent cells were transplanted per NSG mouse after TBI intravenously (primary transplant=1T). Primary human engraftment and multi-lineage reconstitution was analyzed in mice at indicated time periods after bone marrow harvest at 6 and 12 weeks (wks) from left and right femurs, and after sacrifice at 24 wks, from all bones. A portion of cells were analyzed for FACS and the rest were depleted of mouse CD45+ cells and transplanted one to one, into secondary mice (secondary transplant=2T).
Panel A: hCD45^+ cell engraftment in bone marrow of 1T mice at 24 weeks following transplant of cultured hCD34^+ cells with/without p38 inhibitor Birb796. Panel B: Number of 2T mice engrafted (>0.01% hCD45^+ cells in BM) are shown above the middle bar and those non-engrafted below.
A xenograft model was developed to study hHSC engraftment. In the xenograft model of adult human HSC, CD34^+ cells were derived and isolated from fresh MPB. The fresh CD34^+ cells were either directly transplanted into immunocompromised NSG mice or cultured with human cytokines and then transduced either with lentivirus or retrovirus. […] The multipotential human hematopoietic progeny (hCD45^+) following huCD34^+ transplant in NSG mice were then measured to confirm that the model human HSC engraftment from adult (mobilized peripheral blood) CD34^+ HSC/P that mimics the results observed in gene therapy clinical trials. […]

[2] = system: human CD34+38-90+ cells; assay: apoptosis, annexin V+ CD34+38-90+ cells; format: cell-based; conditions: with or without p38i
Protocol: Human CD34^+ cells were cultured and transduced as described in FIG. 13, panel A. Harvested cells were stained with trypan blue for viability, total CD34+ cell number (Panel A), fold change in percent human CD34^+ 38^− 90^+ 45RA^− 49f^+ (HSCs) (Panel B), percent annexin V^+ (apoptotic) CD34^+38^− 90^+ cells (Panel C), fold change in transduction efficiency (based on GFP marker percentage) over non-treated CD34^+38^− 90^+ cells (Panel D), fold change in MitoSOX MFI in CD34^+38^− 90^+ cells are shown (Panel E). Data represents mean±SEM. Statistics: Student's t test, […], *p<0.05, **p<0.01, ***p<0.001.

## Cc1ccc(-n2nc(C(C)(C)C)cc2NC(=O)Nc2ccc(OCCN3CCOCC3)c3ccccc23)cc1 [BIRB-796, 1-[5-tert-butyl-2-(4-methylphenyl)pyrazol-3-yl]-3-[4-(2-morpholin-4-ylethoxy)naphthalen-1-yl]urea]
[1]; 24 weeks after 1T, 72-96 h LV and RV groups
  human CD45+ cell engraftment in NSG BM, 1T: slightly improved
[1]
  hCD45+ cell engraftment in bone marrow of 1T mice: not affecting
[1]; listed as Birb796
  hCD45+ cell engraftment in bone marrow of 1T mice: significantly increases
[2]
  apoptosis in CD34+38-90+ population: no difference

From US20180325947A1, “USE OF MAPK INHIBITORS TO REDUCE LOSS OF HEMATOPOIETIC STEM CELLS DURING EX VIVO CULTURE AND/OR GENETIC MANIPULATION” (Children's Hospital Medical Center, priority 2015, published 2018)
